# Measurements as given in PMC8297476 (Biochemistry, 2021).
# Key:
# adenylate kinase (AdK) [1] = biological target: T1, adenylate kinase (AdK) (Escherichia coli, UniProt P69441); experiment: isothermal titration calorimetry; assay type: binding
# adenylate kinase (AdK) [2] = biological target: T1, adenylate kinase (AdK); experiment: steady-state enzyme kinetics; assay type: biochemical; details: cited from earlier work
# T1 sequence (P69441 whole entry): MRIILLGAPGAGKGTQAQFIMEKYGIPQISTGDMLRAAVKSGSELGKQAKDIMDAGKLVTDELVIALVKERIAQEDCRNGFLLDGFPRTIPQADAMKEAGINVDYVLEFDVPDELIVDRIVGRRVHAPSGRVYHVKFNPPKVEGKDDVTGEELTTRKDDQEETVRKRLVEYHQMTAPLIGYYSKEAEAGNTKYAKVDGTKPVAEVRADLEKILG
SMILES,Kd (adenylate kinase (AdK) [1]),Km (adenylate kinase (AdK) [2])
Nc1ncnc2c1ncn2[C@@H]1O[C@H](COP(=O)(O)OP(=O)(O)O)[C@@H](O)[C@H]1O [ADP],9 µM,
Nc1ncnc2c1ncn2[C@@H]1O[C@H](COP(=O)(O)OP(=O)(O)OP(=O)(O)O)[C@@H](O)[C@H]1O [ATP],,71 µM
